Reference: US6685951B2, “Administration of dihydroergotamine as a sublingual spray or aerosol for the treatment of migraine” (R. T. Alamo Ventures I, Inc., priority 2001, dated 2004)

What was measured:
[1] = Example 6: two-way crossover, DHE tablet under the tongue vs orally with water; assay type: in vivo, healthy normal volunteers; conditions: tablet under the tongue vs orally with about 240 ml water; blood over 24 hour
Protocol: Each volunteer is administered DHE sublingual tablet manufactured as defined in this patent. In one treatment the tablet is administered under the tongue and in the crossover treatment the subject is administered the tablet orally with about 240 ml of water. Blood samples are taken serially over a 24 hour duration post administration and assayed for unchanged DHE and the principle 8-hydroxy DHE metabolite.

[2] = Example 5: plasma uptake of DHE, sublingual tablet vs subcutaneous administration; assay type: in vivo, patient; conditions: plasma monitored 24 hours
Protocol: This example evaluates the uptake in sublingual vs. subcutaneous administration of DHE.
In this experiment one patient suffering from migraine pain is administered a migraine ameliorating dose of DHE as a sublingual tablet formulated as described in Example 1. The plasma concentration of DHE is monitored for a time of 24 hours after the administration. […] The rate and amount of DHE in the plasma is compared to that obtained by subcutaneous administration.

migraine symptoms [3] = assay: Example 4: sublingual DHE vs nasal administration of DHE in migraine patients; assay type: in vivo; conditions: 2 mg sublingual vs 2 mg nasally administered
Protocol: This example compares the effect on migraine of nasal administration of DHE vs. the sublingual administration of the present invention.
This experiment utilizes three test groups of patients. All of the patients are suffering from migraines. One group receives a 2 mg dose of sublingual DHE and placebo intranasal spray, the second group receives a 2 mg nasally administered dose of a pharmaceutical formulation comprising DHE and a placebo sublingual tablet, the third group receives a placebo sublingual tablet and a placebo intranasal spray. Results are compared between the active sublingual test group and the active nasal test group.

migraine symptoms [4] = assay: Example 3: sublingual DHE tablet vs subcutaneous injection of DHE in migraine patients; assay type: in vivo; conditions: 1 mg sublingual tablet vs 1 mg subcutaneous injection
Protocol: This example compares the effect on migraine of subcutaneous injection vs. the sublingual administration of the present invention.
This experiment utilizes three test groups of patients. All of the patients are suffering from migraines. One group receives a 1 mg dose of sublingual DHE tablet and a placebo subcutaneous injection, the second group receives a 1 mg subcutaneous injection of a pharmaceutical formulation comprising DHE and a placebo sublingual tablet, and the third group receives a placebo subcutaneous injection and a placebo sublingual tablet. Results are compared between the active sublingual test group and the active subcutaneous test group.

[5] = oral forms of DHE; cited from earlier work
migraine symptoms [6] = assay: Example 2: sublingual DHE vs placebo in patients suffering from migraines; assay type: in vivo; conditions: 1 mg sublingual DHE
Protocol: This experiment utilizes two test groups of patients. All of the patients are suffering from migraines. One group receives a 1 mg dose of sublingual DHE, the other group receives a placebo. The DHE sublingual formulation is placed by the patients or medical professional under the tongue. The DHE sublingual formulation is allowed to dissolve fully. If the symptoms are not relieved within 20 to 40 minutes, a second dose is administered. Results are compared between the test group and the placebo group. […] The difference in amelioration of migraine symptoms are statistically significant.

[7] = Plasma DHE after sublingual administration of DHE 45 dosing solution in a monkey; assay type: in vivo, Cynomogolius monkey
Protocol: In this example the intrinsic permeability of DHE was shown after it was sublingually administered DHE in a Cynomogolius monkey.
The test DHE was obtained from as DHE 45® Injection, USP (manufactured by Novartis). Specific information follows.
(§1) Prior to dose administration, the animal was restrained and anesthetized with an appropriate amount of ketamine. Using a calibrated pipette, 0.5 mL of dosing solution was placed under the animal's tongue immediately after swabbing excess saliva with a gauze pad (the gauze pad will be discarded). The animal's head was restrained for approximately 5 minutes in such a manner to minimize any loss of the dose solution through the animal's mouth or down the animal's throat.
Blood (approximately 1 mL) was collected from each animal prior to dosing (predose) and at 0.1, 0.2, 0.3, 0.4, 0.5, 1, 2, 4, 8, and 12 hours postdose. Blood was collected via a femoral vein into sodium-heparinized tubes.
Blood was maintained on wet ice, in chilled Kryoracks, or at approximately 5° C. prior to centrifugation to obtain plasma. Centrifugation was begin within 30 minutes of collection. The blood samples were centrifuged at approximately 5° C. for approximately 10 minutes at approximately 4,000 rpm. Plasma was harvested and stored on dry ice or at approximately −70° C. prior to shipment.
The plasma was assayed for DHE using standard techniques.

[8] = Mortality/moribundity checks and cageside observation after sublingual DHE; assay type: in vivo, Cynomogolius monkey; conditions: sublingual 0.5 mL of 1.0 mg/mL; throughout the study
Protocol: as §1
Mortality and moribundity checks were done twice daily (a.m. and p.m.). Cageside observation for general health and appearance was done once daily.

migraine = conditions: in vivo; cited from earlier work

SMILES	levels of active DHE, sublingual higher than oral [1]	time to maximum plasma concentration of DHE [2]	amelioration of migraine symptoms, sublingual vs nasal group (migraine symptoms [3])	amelioration of migraine symptoms, sublingual vs subcutaneous group (migraine symptoms [4])	active unchanged drug that reaches the blood stream [5]	amelioration of migraine symptoms compared to placebo control group (migraine symptoms [6])	half-life ([7]; cynomolgus, monkey, in vivo)	Tmax ([7]; cynomolgus, monkey, in vivo, 0.5 mg, plasma, sublingual 0.5 mL of 1.0 mg/mL, read-out: Tmax (time point of maximum concentration) (converted))	detection of DHE in the blood plasma after sublingual administration ([7]; sublingual)	observations for general health and appearance, mortality and moribundity [8]	efficacy in the treatment of migraine (migraine)
CN1C[C@H](C(=O)N[C@]2(C)O[C@@]3(O)[C@@H]4CCCN4C(=O)[C@H](Cc4ccccc4)N3C2=O)C[C@@H]2c3cccc4[nH]cc(c34)C[C@H]21 [DHE, Dihydroergotamine]	at least 200%	30 to 60 min	equivalent amelioration of migraine symptoms	equivalent amelioration of migraine symptoms	2-10%	greater amelioration of migraine symptoms	2.2 h	5 min	rapid detection of DHE in the blood plasma	No unusual observations	–
CN(C)CCc1c[nH]c2ccc(Cn3cncn3)cc12 [rizatriptan]	–	–	–	–	–	–	–	–	–	–	60-70%
